The subject of one assay is W2 strain. As to the kind of experiment: parasite proliferation assay in infected red blood cells (SYBR Green I), W2 strain. Format: cell-based. From the text:
(§1) Compounds of the invention can be assayed to measure their capacity to inhibit proliferation of parasitemia in infected red blood cells. The proliferation is quantified by the addition of SYBR Green I (INVITROGEN)® dye which has a high affinity for double stranded DNA.

A further assay relates to 3D7 P. falciparum strain. As to the kind of experiment: parasite proliferation assay in infected red blood cells (SYBR Green I). Format: cell-based, Plasmodium falciparum. Conditions: 3D7 strain, read-out: EC50 3D7 strain.
Source text: as §1
The following assay illustrates the invention without in any way limiting the scope of the invention. This parasite proliferation assay measures the increase in parasite DNA content using a DNA intercalating dye, SYBR Green®.
3D7 P. falciparum strain is grown in complete culturing media until parasitemia reaches 3% to 8% with O+ human erythrocytes. 20 μl of screening media is dispensed into 384 well assay plates. […] 10 μl of lysis buffer (saponin, triton-X, EDTA) containing a 10× solution of SYBR Green I® in RPMI media is dispensed into the plates. The plates are lidded and kept at room temperature overnight for the lysis of the infected red blood cells.

[1] abbreviates: Plasmodium falciparum, 3D7, Erythrocyte.

Where two headings read alike, the source gives them in different places.

Usually EC50 stands for the concentration needed to bring the measured effect to its halfway point. `NCC(=O)N1CCn2c(nc(-c3ccc(F)cc3)c2Nc2ccc(C(F)(F)F)cc2)C1` [Compound 73]: the EC50 stood at 59 nM in the assay with W2 strain (Erythrocyte) and 80 nM with 3D7 P. falciparum strain (setting [1]).
On the same counts, the results for `Cc1ccc(Nc2c(-c3ccc(F)cc3)nc3n2CCN(C(=O)CN2CCCC(F)(F)C2)C3)cc1` [Compound 74] are 67 nM and 70 nM.
On the same counts, the results for `CNCC(=O)N1CCn2c(nc(-c3ccc(F)cc3)c2Nc2ccc(C)cc2)C1` [Compound 75] are 190 nM and 250 nM.
On the same counts, the results for `O=C(CN1CCCC(F)(F)C1)N1CCn2c(nc(-c3ccc(F)cc3)c2Nc2ccc(Cl)cc2)C1` [Compound 76] are 61 nM and 60 nM.
`CNCC(=O)N1CCn2c(nc(-c3ccc(F)cc3)c2Nc2ccc(Cl)cc2)C1` [Compound 77]: the figures for the EC50 in the assay with W2 strain (Erythrocyte) and in the assay with 3D7 P. falciparum strain (setting [1]) were 39 nM and 60 nM, respectively.
Turning to `CC(C)(N)C(=O)N1CCn2c(nc(-c3ccc(F)cc3)c2Nc2ccc(F)cc2F)C1` [Compound 79], the EC50 was 90 nM with W2 strain (Erythrocyte) and 110 nM with 3D7 P. falciparum strain (setting [1]).
`NCC(=O)N1CCn2c(nc(-c3ccc(F)cc3)c2Nc2ccc(F)cc2F)C1` [Compound 80]: the EC50 amounted to 63 nM in the assay on W2 strain (Erythrocyte) and 60 nM in the assay on 3D7 P. falciparum strain (setting [1]).
In the case of `Cc1ccc(Nc2c(-c3ccc(F)cc3)nc3n2CCN(C(=O)[C@H](C)O)C3)cc1` [Compound 81], the EC50 in the assay with W2 strain (Erythrocyte) came out at 449 nM; in the assay on 3D7 P. falciparum strain (setting [1]), 300 nM.
The like results for `Cc1ccc(Nc2c(-c3ccc(F)cc3)nc3n2CCN(C(=O)[C@H](C)N)C3)cc1` [Compound 83] were, in that order, 131 nM and 80 nM.
On the same counts, the results for `Cc1ccc(Nc2c(-c3ccc(F)cc3)nc3n2CCN(C(=O)[C@@H](C)N)C3)cc1` [Compound 84] are 74 nM and 50 nM.
The like results for `CC[C@H](N)C(=O)N1CCn2c(nc(-c3ccc(F)cc3)c2Nc2ccc(C)cc2)C1` [Compound 85] were, in that order, 31 nM and 20 nM.
On to `Cc1ccc(Nc2c(-c3ccc(F)cc3)nc3n2CCN(C(=O)C2CCCNC2)C3)cc1` (centres unmarked) [Compound 86], for which the EC50 in the assay on W2 strain was found to be 755 nM; in the assay on 3D7 P. falciparum strain it was 710 nM.
On the same counts, the results for `Cc1ccc(Nc2c(-c3ccc(F)cc3)nc3n2CCN(C(=O)C2CCCNC2)C3)cc1` (centres unmarked) [Compound 87] are 12 nM and 20 nM.
With `CCN(CC)CCN1CCn2c(nc(-c3ccc(F)cc3)c2Nc2ccc(C)cc2)C1` [Compound 88], the EC50 is 81 nM with W2 strain (Erythrocyte) and 150 nM with 3D7 P. falciparum strain (setting [1]).
In the case of `Cc1ccc(Nc2c(-c3ccc(F)cc3)nc3n2CCN(C(=O)[C@H]2CCN2)C3)cc1` [Compound 89], the results for the EC50 in the assay on W2 strain (Erythrocyte) and in the assay on 3D7 P. falciparum strain (setting [1]) were 73 nM and 50 nM, respectively.
As to `Cc1ccc(Nc2c(-c3ccc(F)cc3)nc3n2CCN(C(=O)[C@@H]2CCCN2)C3)cc1` [Compound 90], the EC50 in the assay with W2 strain (Erythrocyte) worked out at 600 nM; with 3D7 P. falciparum strain (setting [1]), 650 nM.
The like results for `Cc1ccc(Nc2c(-c3ccc(F)cc3)nc3n2CCN(C(=O)C2CCCN2)C3)cc1` (centres unmarked) [Compound 91] were, in that order, 154 nM and 120 nM.
As for `Cc1ccc(Nc2c(-c3ccc(F)cc3)nc3n2CCN(C(=O)C2CCCNC2)C3)cc1` (centres unmarked) [Compound 92], the EC50 worked out at 1480 nM in the assay with W2 strain and 1300 nM with 3D7 P. falciparum strain.
The like results for `Cc1ccc(Nc2c(-c3ccc(F)cc3)nc3n2CCN(C(=O)C2CCCNC2)C3)cc1` (centres unmarked) [Compound 93] were, in that order, 1510 nM and 1670 nM.
Consider `CC(C)(N)C(=O)N1CCn2c(nc(-c3ccc(F)cc3)c2Nc2ccc(Cl)c(F)c2)C1` [Compound 94], for which the concentration giving a half-maximal response (EC50) in the assay on W2 strain (Erythrocyte) came to 52 nM; in the assay with 3D7 P. falciparum strain (setting [1]) it was 40 nM.
Take `Cc1ccc(Nc2c(-c3ccc(F)cc3)nc3n2CCN(C(=O)C2CCNC2)C3)cc1` (centres unmarked) [Compound 95]: the EC50 in the assay with W2 strain worked out at 707 nM; in the assay on 3D7 P. falciparum strain, 1540 nM.
Consider `Cc1ccc(Nc2c(-c3ccc(F)cc3)nc3n2CCN(C(=O)C2CCNC2)C3)cc1` (centres unmarked) [Compound 96], for which the values for the EC50 with W2 strain and in the assay with 3D7 P. falciparum strain were 321 nM and 580 nM, respectively.
In the case of `Cc1ccc(Nc2c(-c3ccc(F)cc3)nc3n2CCN(C(=O)[C@H](N)c2ccccc2)C3)cc1` [Compound 97], the EC50 was found to be 21 nM in the assay with W2 strain (Erythrocyte) and 40 nM in the assay with 3D7 P. falciparum strain (setting [1]).
On the same counts, the results for `Cc1ccc(Nc2c(-c3ccc(F)cc3)nc3n2CCN(C(=O)[C@@H](N)c2ccccc2)C3)cc1` [Compound 98] are 8 nM and 10 nM.
On the same counts, the results for `Cc1ccc(Nc2c(-c3ccc(F)cc3)nc3n2CCN(C(=O)C2(O)CC2)C3)cc1` [Compound 99] are 658 nM and 810 nM.
Take `Cc1ccc(Nc2c(-c3ccc(F)cc3)nc3n2CCN(C(=O)CC(C)(C)O)C3)cc1` [Compound 100]: the EC50 came to 143 nM with W2 strain (Erythrocyte) and 150 nM in the assay on 3D7 P. falciparum strain (setting [1]).
For `CC(=O)NCCCC[C@H](N)C(=O)N1CCn2c(nc(-c3ccc(F)cc3)c2Nc2ccc(C)cc2)C1` [Compound 101], the EC50 in the assay with W2 strain (Erythrocyte) turned out to be 4370 nM; in the assay with 3D7 P. falciparum strain (setting [1]), 5090 nM.
On the same counts, the results for `Cc1ccc(Nc2c(-c3ccc(F)cc3)nc3n2CCN(C(=O)[C@H](N)CCCCNC(=O)C(F)(F)F)C3)cc1` [Compound 102] are 426 nM and 650 nM.
The like results for `Cc1ccc(Nc2c(-c3ccc(F)cc3)nc3n2CCN(C(=O)C(O)C(C)C)C3)cc1` (centres unmarked) [Compound 104] were, in that order, 7 nM and 10 nM.
On the same counts, the results for `Cc1ccc(Nc2c(-c3ccc(F)cc3)nc3n2CCN(C(=O)C(O)c2ccc(F)cc2)C3)cc1` (centres unmarked) [Compound 107] are 10 nM and 10 nM.
Take `Cc1ccc(Nc2c(-c3ccc(F)cc3)nc3n2CCN(C(=O)[C@@H](O)C(C)(C)C)C3)cc1` [Compound 110]: the EC50 was found to be 15 nM in the assay with W2 strain (Erythrocyte) and 20 nM in the assay with 3D7 P. falciparum strain (setting [1]).
On the same counts, the results for `Cc1ccc(Nc2c(-c3ccc(F)cc3)nc3n2CCN(C(=O)C2(O)CCCC2)C3)cc1` [Compound 116] are 1510 nM and 1640 nM.
On the same counts, the results for `Cc1ccc(Nc2c(-c3ccc(F)cc3)nc3n2CCN(C(=O)C2(O)CCCCC2)C3)cc1` [Compound 117] are 1190 nM and 1260 nM.
The like results for `Cc1ccc(Nc2c(-c3ccc(F)cc3)nc3n2CCN(C(=O)[C@@H](O)CCc2ccccc2)C3)cc1` [Compound 118] were, in that order, 135 nM and 150 nM.
Regarding `Cc1ccc(Nc2c(-c3ccc(F)cc3)nc3n2CCN(C(=O)CC(C)(O)C(F)(F)F)C3)cc1` (centres unmarked) [Compound 120], the values for the EC50 in the assay with W2 strain (Erythrocyte) and with 3D7 P. falciparum strain (setting [1]) were 123 nM and 110 nM, respectively.
The like results for `Cc1ccc(Nc2c(-c3ccc(F)cc3)nc3n2CCN(C(=O)[C@H](O)C2CCCCC2)C3)cc1` [Compound 121] were, in that order, 33 nM and 20 nM.
The like results for `COc1ccc(C(O)C(=O)N2CCn3c(nc(-c4ccc(F)cc4)c3Nc3ccc(C)cc3)C2)cc1` (centres unmarked) [Compound 122] were, in that order, 154 nM and 180 nM.
On the same counts, the results for `Cc1ccc(Nc2c(-c3ccc(F)cc3)nc3n2CCN(C(=O)C(O)c2cccc(C(F)(F)F)c2)C3)cc1` (centres unmarked) [Compound 124] are 28 nM and 40 nM.
Turning to `COC(C(=O)N1CCn2c(nc(-c3ccc(F)cc3)c2Nc2ccc(C)cc2)C1)c1ccccc1` (centres unmarked) [Compound 125], the EC50 worked out at 44 nM in the assay with W2 strain (Erythrocyte) and 50 nM with 3D7 P. falciparum strain (setting [1]).
On the same counts, the results for `Cc1ccc(Nc2c(-c3ccc(F)cc3)nc3n2CCN(C(=O)C(O)c2ccc(Br)cc2)C3)cc1` (centres unmarked) [Compound 126] are 80 nM and 100 nM.

The values are drawn from patent publication US9469645B2, “Compounds and compositions for the treatment of parasitic diseases” (Novartis AG, priority 2009, dated 2016).
